From PubChem BioAssay AID330 (DTP/NCI, 2004)
“And” between values parts separate entries of the source, which are not always exact repeats. Identical values can stand only once. Inconclusive results and toxic doses are left out. The calls were made as follows: active = survival T/C of 150% or more; inactive = T/C below 125% in these data.

System: P388 leukemia ip, CD2F1 mice, survival T/C
Assay: NCI In Vivo Anticancer Drug Screen. Data for tumor model P388 Leukemia (intraperitoneal) in CD2F1 (CDF1) mice
Settings: endpoint: median survival time, higher = longer survival
In short: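 Mice carrying the transplanted tumor received test compound or vehicle. Survival was recorded in each group, and the value is the treated-group measurement divided by that of the vehicle-treated control group.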

[1] = dose: 50.0 mg/kg/injection, schedule: Q01DX005 (ip), vehicle: saline with Tween-80
[2] = dose: 100.0 mg/kg/injection, schedule: Q01DX005 (ip), vehicle: saline with Tween-80
[3] = dose: 200.0 mg/kg/injection, schedule: Q01DX005 (ip), vehicle: saline with Tween-80
[4] = dose: 60.0 mg/kg/injection, schedule: Q01DX005 (ip), vehicle: saline with Tween-80
[5] = dose: 120.0 mg/kg/injection, schedule: Q01DX005 (ip), vehicle: saline with Tween-80
[6] = dose: 240.0 mg/kg/injection, schedule: Q01DX005 (ip), vehicle: saline with Tween-80
[7] = dose: 100.0 mg/kg/injection, schedule: Q01DX001 (ip), vehicle: Klucel (hydroxypropylcellulose) (HPC)
[8] = dose: 200.0 mg/kg/injection, schedule: Q01DX001 (ip), vehicle: Klucel (hydroxypropylcellulose) (HPC)
[9] = dose: 6.25 mg/kg/injection, schedule: Q04DX003 (ip), vehicle: saline
[10] = dose: 12.5 mg/kg/injection, schedule: Q04DX003 (ip), vehicle: saline
[11] = dose: 25.0 mg/kg/injection, schedule: Q04DX003 (ip), vehicle: saline
[12] = dose: 100.0 mg/kg/injection, schedule: Q01DX001 (ip), vehicle: saline
[13] = dose: 200.0 mg/kg/injection, schedule: Q01DX001 (ip), vehicle: saline
[14] = dose: 400.0 mg/kg/injection, schedule: Q01DX001 (ip), vehicle: Klucel (hydroxypropylcellulose) (HPC)
[15] = dose: 400.0 mg/kg/injection, schedule: Q01DX001 (ip), vehicle: saline
[16] = dose: 50.0 mg/kg/injection, schedule: Q01DX005 (ip), vehicle: saline
[17] = dose: 100.0 mg/kg/injection, schedule: Q01DX005 (ip), vehicle: saline
[18] = dose: 200.0 mg/kg/injection, schedule: Q01DX005 (ip), vehicle: saline

Measured: T/C

CC(C1SC(=S)NC1=O)C1SC(=S)NC1=O (centres undefined)
inactive: [1] 86 % of control | [2] 87 % of control | [3] 87 % of control

CCN(CC)C(=O)N1C=CC(c2ccccc2)C=C1
inactive: [4] 103 % of control | [5] 106 % of control | [6] 108 % of control

CC12CCc3ccccc3C1=Nc1ccccc12 (centres undefined)
inactive: [1] 103 % of control | [2] 104 % of control | [3] 91 % of control

CN(C)[C](=[Au][Cl])c1ccccc1
inactive: dose: 25.0 mg/kg/injection, schedule: Q04DX002 (ip), vehicle: Klucel (hydroxypropylcellulose) (HPC) 109 % of control | dose: 50.0 mg/kg/injection, schedule: Q04DX002 (ip), vehicle: Klucel (hydroxypropylcellulose) (HPC) 111 % of control | dose: 100.0 mg/kg/injection, schedule: Q04DX002 (ip), vehicle: Klucel (hydroxypropylcellulose) (HPC) 108 % of control and 96 % of control

O=C(CCl)c1ccc([N+](=O)[O-])cc1
inactive: dose: 1.56 mg/kg/injection, schedule: Q01DX005 (ip), vehicle: Klucel (hydroxypropylcellulose) (HPC) 100 % of control | dose: 3.12 mg/kg/injection, schedule: Q01DX005 (ip), vehicle: Klucel (hydroxypropylcellulose) (HPC) 100 % of control | dose: 6.25 mg/kg/injection, schedule: Q01DX005 (ip), vehicle: Klucel (hydroxypropylcellulose) (HPC) 108 % of control | dose: 12.5 mg/kg/injection, schedule: Q01DX005 (ip), vehicle: Klucel (hydroxypropylcellulose) (HPC) 89 % of control and 98 % of control | dose: 50.0 mg/kg/injection, schedule: Q01DX009 (ip), vehicle: saline with Tween-80 116 % of control

CC(=O)c1cc[n+](Cc2cc3ccccc3nc2Br)cc1
inactive: dose: 12.5 mg/kg/injection, schedule: Q04DX002 (ip), vehicle: saline 101 % of control | dose: 25.0 mg/kg/injection, schedule: Q04DX002 (ip), vehicle: saline 102 % of control | dose: 50.0 mg/kg/injection, schedule: Q04DX002 (ip), vehicle: saline 101 % of control

NC12CC3CC(CC(C3)C1)C2
inactive: dose: 25.0 mg/kg/injection, schedule: Q01DX005 (ip), vehicle: saline with Tween-80 97 % of control | [1] 92 % of control | [2] 88 % of control

CC[CH2][Sn](=[O])[c]1ccccc1
inactive: dose: 12.5 mg/kg/injection, schedule: Q01DX009 (ip), vehicle: saline 99 % of control | dose: 25.0 mg/kg/injection, schedule: Q01DX009 (ip), vehicle: saline 105 % of control | dose: 50.0 mg/kg/injection, schedule: Q01DX009 (ip), vehicle: saline 98 % of control and 123 % of control | dose: 200.0 mg/kg/injection, schedule: Q01DX009 (ip), vehicle: saline 96 % of control

CCC(C)(C)c1ccc(OCCCCNC(=O)c2ccc3ccccc3c2O)c(C(C)(C)CC)c1
inactive: dose: 60.0 mg/kg/injection, schedule: Q01DX005 (ip), vehicle: Klucel (hydroxypropylcellulose) (HPC) 90 % of control | dose: 120.0 mg/kg/injection, schedule: Q01DX005 (ip), vehicle: Klucel (hydroxypropylcellulose) (HPC) 89 % of control | dose: 240.0 mg/kg/injection, schedule: Q01DX005 (ip), vehicle: Klucel (hydroxypropylcellulose) (HPC) 86 % of control

CCOC(=O)C12C(C(=O)OC)=CC(=O)NC1(OCC)OC(C)C2C (centres undefined)
inactive: dose: 50.0 mg/kg/injection, schedule: Q01DX001 (ip), vehicle: Klucel (hydroxypropylcellulose) (HPC) 94 % of control | [7] 89 % of control | [8] 89 % of control

COc1ccc(-c2c3c(cc4cc5c(cc24)OCO5)C(=O)OC3)cc1OC
inactive: dose: 12.0 mg/kg/injection, schedule: Q01DX009 (ip), vehicle: Klucel (hydroxypropylcellulose) (HPC) 110 % of control | dose: 24.0 mg/kg/injection, schedule: Q01DX009 (ip), vehicle: Klucel (hydroxypropylcellulose) (HPC) 91 % of control | dose: 48.0 mg/kg/injection, schedule: Q01DX009 (ip), vehicle: Klucel (hydroxypropylcellulose) (HPC) 86 % of control | dose: 96.0 mg/kg/injection, schedule: Q01DX009 (ip), vehicle: Klucel (hydroxypropylcellulose) (HPC) 88 % of control

[C-]#[N+]C(C)Cc1ccccc1 (centres undefined)
inactive: dose: 1.56 mg/kg/injection, schedule: Q04DX003 (ip), vehicle: saline 101 % of control | dose: 3.13 mg/kg/injection, schedule: Q04DX003 (ip), vehicle: saline 103 % of control | [9] 103 % of control | [10] 105 % of control | [11] 104 % of control

CCP(c1ccccc1)c1ccccc1
inactive: [7] 100 % of control | [12] 107 % of control | [8] 98 % of control | [13] 96 % of control | [14] 103 % of control | [15] 96 % of control | dose: 600.0 mg/kg/injection, schedule: Q01DX001 (ip), vehicle: Klucel (hydroxypropylcellulose) (HPC) 102 % of control

CC1=NN(C(=O)CC(=O)Nc2ccc(C(=O)O)cc2)C(=O)C1N=Nc1ccccc1 (centres undefined)
inactive: [16] 105 % of control | [17] 102 % of control | [18] 108 % of control

COC(=O)c1[c]([Sn]([CH3])([CH3])[CH3])n[n]([Pb]([CH3])([CH3])[CH3])c1C(=O)OC
inactive: [9] 95 % of control | [10] 95 % of control | [11] 95 % of control

COc1ccc2c(c1OC)C(N1CCc3cc4c(cc3C1=O)OCO4)OC2=O (centres undefined)
inactive: dose: 12.5 mg/kg/injection, schedule: Q01DX001 (ip), vehicle: saline + alcohol 89 % of control | dose: 25.0 mg/kg/injection, schedule: Q01DX001 (ip), vehicle: saline + alcohol 87 % of control | dose: 50.0 mg/kg/injection, schedule: Q01DX001 (ip), vehicle: saline + alcohol 87 % of control

COc1ccccc1Nc1ncnc2sc3c(c12)CCCC3
inactive: [1] 101 % of control | [2] 95 % of control | [3] 101 % of control

c1ccc2c(c1)C1CC3N=NC1C23 (centres undefined)
inactive: dose: 50.0 mg/kg/injection, schedule: Q01DX005 (ip), vehicle: Klucel (hydroxypropylcellulose) (HPC) 105 % of control | dose: 100.0 mg/kg/injection, schedule: Q01DX005 (ip), vehicle: Klucel (hydroxypropylcellulose) (HPC) 107 % of control

CCN(CC)c1ccc(C(NCC2CCCCO2)C(Cl)(Cl)Cl)cc1 (centres undefined)
inactive: [16] 117 % of control | [17] 102 % of control | [18] 100 % of control

COC(=O)C1=COC(C)C2CN3CCc4c([nH]c5ccccc45)C3CC12 (centres undefined)
inactive: [1] 106 % of control | [4] 100 % of control | [2] 106 % of control | [5] 93 % of control | [3] 100 % of control | [6] 90 % of control

NC(N)=Nc1nc2ccccc2o1
inactive: dose: 50.0 mg/kg/injection, schedule: Q04DX003 (ip), vehicle: Klucel (hydroxypropylcellulose) (HPC) 90 % of control | dose: 100.0 mg/kg/injection, schedule: Q04DX003 (ip), vehicle: Klucel (hydroxypropylcellulose) (HPC) 100 % of control | dose: 200.0 mg/kg/injection, schedule: Q04DX003 (ip), vehicle: Klucel (hydroxypropylcellulose) (HPC) 100 % of control

CCCCOP(=O)(O)SP(=O)(O)OCCCC
inactive: [7] 103 % of control | [12] 103 % of control and 106 % of control and 98 % of control | dose: 100.0 mg/kg/injection, schedule: Q04DX003 (ip), vehicle: suspension in saline 105 % of control | [8] 119 % of control | [13] 106 % of control and 98 % of control and 103 % of control | dose: 200.0 mg/kg/injection, schedule: Q04DX003 (ip), vehicle: suspension in saline 105 % of control | [14] 104 % of control | [15] 106 % of control and 103 % of control and 94 % of control | dose: 400.0 mg/kg/injection, schedule: Q04DX003 (ip), vehicle: suspension in saline 110 % of control
